Results from article PMC11356900, “Synthesis, Structural Properties and Biological Activities of Novel Hydrazones of 2-, 3-, 4-Iodobenzoic Acid” (Molecules, 2024).
In brackets after ≈: the same amount, converted by molar mass. Read-outs that look alike come from different tables or passages of the source.

Legend:
[1] = test system: Staphylococcus aureus ATCC 43300; experiment: Broth microdilution MIC/MBC; details: ATCC43300 / MRSA
[2] = test system: Bacillus cereus ATCC 10876; experiment: Broth microdilution MIC/MBC; details: Bacillus cereus, ATCC10876
[3] = test system: Staphylococcus aureus ATCC 25923; experiment: Broth microdilution MIC/MBC; details: Staphylococcus aureus, ATCC25923
[4] = test system: Staphylococcus epidermidis ATCC 12228; experiment: Broth microdilution MIC/MBC; details: ATCC12228
[5] = test system: Bacillus subtilis ATCC 6633; experiment: Broth microdilution MIC/MBC; details: ATCC6633
[6] = test system: Micrococcus luteus ATCC 10240; experiment: Broth microdilution MIC/MBC; details: Micrococcus luteus, ATCC10240
[7] = test system: Escherichia coli ATCC 25922; experiment: Broth microdilution MIC/MBC; details: ATCC25922
[8] = test system: Bordetella bronchiseptica ATCC 4617; experiment: Broth microdilution MIC/MBC; details: ATCC4617
[9] = test system: Pseudomonas aeruginosa ATCC 9027; experiment: Broth microdilution MIC/MBC; details: ATCC9027
[10] = test system: Salmonella typhimurium ATCC 14028; experiment: Broth microdilution MIC/MBC; details: Salmonella enterica
[11] = test system: Candida glabrata ATCC 90030; experiment: Broth microdilution MIC/MFC; type: cell-based; details: Nakaseomyces glabratus; for MIC: ATCC90030, read-out: MIC
Text: (§1) Procedures of in vitro antimicrobial assays are described in Supplementary Materials.
(§2) 2. Microbiology – in vitro antimicrobial activity assays […]
(§3) using the broth microdilution method according to the European Committee on Antimicrobial Susceptibility Testing (EUCAST) and Clinical and Laboratory Standards Institute guidelines against a panel of reference and clinical or saprophytic strains of mi croorganisms, including the Gram-positive bacteria: Staphylococcus aureus ATCC 43300 (Methi-cillin Resistant S. aureus – MRSA), Staphylococcus aureus ATCC 29213 (Methicillin Susceptible S. aureus – MSSA), Staph-ylococcus epidermidis ATCC 12228, Micrococcus luteus ATCC 10240, Bacillus subtilis ATCC 6633 and Bacillus cereus ATCC 10876), Gram-negative bacteria: Bordetella bronchiseptica ATCC 4617, Escherichia coli ATCC 25922, Klebsiella pneumoniae ATCC 13883, Proteus mirabilis ATCC 12453, Salmonella typhimurium ATCC 14028 and Pseudomonas aeruginosa ATCC 9027, and fungi belonging to yeasts: Candida albicans ATCC 10231, Candida albicans ATCC 2091, Candida parapsilosis ATCC 22019, Candida glabrata ATCC 90030 and Candida krusei ATCC 14243. The microorganisms belonging to ATCC originated from American Type Culture Collection, routinely used for the evaluation of antimicrobials. All the used microbial cultures were first subcultured on nutrient agar or Sabouraud agar at 35°C for 18-24 h or 30°C for 24-48 h for bacteria […]
(§4) The surface of Mueller-Hinton agar (for bacteria) and RPMI 1640 with MOPS (for fungi) were inoculated with the suspensions of bacterial or fungal species. Microbial suspensions were prepared in sterile saline with an optical density of McFarland standard scale 0.5. The samples containing the compounds were dissolved in dimethyl sulfoxide (DMSO).
(§5) Furthermore, the bacterial and fungal suspensions put onto the Petri dishes with solid media containing 2 mg/mL of the tested compounds followed were incubated at 37°C for 24h and 30°C for 48h for bacteria and fungi, respectively.
(§6) The inhibition of microbial growth was estimated comparing with a control culture prepared without any tested sam- […]
(§7) antifungal compounds, respectively.
(§8) Subsequently, MIC (Minimal Inhibitory Concentration) of the compounds was examined by the microdilution broth method, using their two-fold dilutions in Mueller-Hinton broth (for bacteria) and RPMI 1640 broth with MOPS (for fungi) prepared in the 96-well polystyrene plates. The final concentrations of the compounds ranged from 1000 to 0.488 µg/mL. Microbial suspensions were prepared in 0.85% NaCl with an optical density of 0.5 McFarland standard. Next each bacterial or fungal suspension was added per each well containing broth and various concentrations of the exam-ined compounds. After incubation, the MIC was assessed spectrophotometrically as the lowest concentration of the […]
(§9) Appropriate DMSO, growth and sterile controls were carried out. The medium with no tested substances was used as a control The MBC (Minimal Bactericidal Concentration) and MFC (Minimal Fungicidal Concentration) are defined as the lowest concentration of the compounds that is required to kill a particular bacterial or fungal species. The MBC/MFC was determined by removing the culture used for the MIC determination from each well and spotted onto the appro-priate agar medium. The plates were incubated under appropriate conditions for bacteria and fungi. The lowest com-pounds concentration with no visible growth observed was assessed as a bactericidal/fungicidal concentration. All the experiments were repeated three times and the representative data are presented.
(§10) 1. European Committee for Antimicrobial Susceptibility Testing (EUCAST) Determination of minimum inhibitory con-centrations (MICs) of antibacterial agents by broth dilution. EUCAST discussion document E. Dis 5.1. Clin. Microbiol.
(§11) 2. Clinical and Laboratory Standards Institute. Reference method for broth dilution antifungal susceptibility testing of […]

[12] = test system: Candida parapsilosis ATCC 22019; experiment: Broth microdilution MIC/MFC; type: cell-based; details: Lodderomyces parapsilosis; for MIC: ATCC22019, read-out: MIC; for MFC: ATCC22019, read-out: MFC
Text: as §1, §2, §3, §4, §5, §6, §7, §8, §9, §10, §11

[13] = test system: Candida albicans ATCC 2091; experiment: Broth microdilution MIC/MFC; type: cell-based; details: for MIC: ATCC2091, read-out: MIC
Text: as §1, §2, §3, §4, §5, §6, §7, §8, §9, §10, §11

[14] = test system: Candida krusei ATCC 14243; experiment: Broth microdilution MIC/MFC; type: cell-based; details: Pichia kudriavzevii; for MIC: ATCC14243, read-out: MIC
Text: as §1, §2, §3, §4, §5, §6, §7, §8, §9, §10, §11

[15] = test system: Candida albicans ATCC 10231; experiment: Broth microdilution MIC/MFC; type: cell-based; details: for MIC: ATCC10231, read-out: MIC
Text: as §1, §2, §3, §4, §5, §6, §7, §8, §9, §10, §11

[16] = test system: Proteus mirabilis ATCC 12453; experiment: Broth microdilution MIC/MBC; details: ATCC12453
Gram-positive bacteria = experiment: Broth microdilution, summary over reference Gram-positive bacteria; type: cell-based; details: for antibacterial activity in words: reference Gram-positive bacteria / studied bacteria
Text: as §1, §2, §3, §4, §5, §6, §7, §8, §9, §10, §11

[17] = test system: Staphylococcus aureus ATCC 29213; experiment: Broth microdilution MIC/MBC; details: ATCC29213
[18] = test system: Klebsiella pneumoniae ATCC 13883; experiment: Broth microdilution MIC/MBC; details: ATCC13883
Candida spp. = experiment: Broth microdilution, summary over reference yeasts; type: cell-based
Text: as §1, §2, §3, §4, §5, §6, §7, §8, §9, §10, §11

[19] = range over the reference Candida spp. strains

SMILES: CCOc1cccc(/C=N/NC(=O)c2cccc(I)c2)c1O [Compound 18, N-[(3-ethoxy-2-hydroxyphenyl)methylidene]-3-iodobenzohydrazide]
- MIC [1]: > 1000 µg/mL
- MIC [2]: > 1000 µg/mL
- MIC [3]: > 1000 µg/mL
- MBC [4]: > 1000 µg/mL
- MIC [4]: 500 µg/mL (≈ 1220 µM)
- MBC [5]: > 1000 µg/mL
- MIC [5]: 62.5 µg/mL (≈ 152 µM)
- MBC [6]: 250 µg/mL (≈ 609 µM)
- MIC [6]: 31.2 µg/mL (≈ 76.2 µM)
- MIC [7]: > 1000 µg/mL
- melting point: 115 to 121 °C
- MIC [8]: > 1000 µg/mL
- MIC [9]: > 1000 µg/mL
- MIC [10]: > 1000 µg/mL
- MIC [11]: > 1000 µg/mL
- MIC [12]: > 1000 µg/mL
- MIC [13]: > 1000 µg/mL
- MIC [14]: > 1000 µg/mL
- MIC [15]: > 1000 µg/mL
- MIC [16]: > 1000 µg/mL
- MIC (Gram-positive bacteria): 31.2 to 1000 µg/mL (≈ 76.2 to 2440 µM)
- MIC [17]: > 1000 µg/mL
- MIC [18]: > 1000 µg/mL

SMILES: O=C(N/N=C/c1cc(O)ccc1O)c1cccc(I)c1 [Compound 19, N-[(2,5-dihydroxyphenyl)methylidene]-3-iodobenzohydrazide]
- MIC [1]: > 1000 µg/mL
- MIC [2]: > 1000 µg/mL
- MIC [3]: > 1000 µg/mL
- MIC [4]: > 1000 µg/mL
- MIC [5]: > 1000 µg/mL
- MIC [6]: > 1000 µg/mL
- MIC [7]: > 1000 µg/mL
- MFC/MIC (Candida spp.; [19]): > 4
- MIC (Candida spp.; [19]): 125 to 500 µg/mL (≈ 327 to 1310 µM)
- antifungal activity in words (Candida spp.; reference yeasts from Candida spp.): good and moderate
- melting point: 220 to 224 °C
- MIC [8]: > 1000 µg/mL
- MIC [9]: > 1000 µg/mL
- MIC [10]: > 1000 µg/mL
- MFC ([11]; ATCC90030, read-out: MFC): > 1000 µg/mL
- MIC [11]: 500 µg/mL (≈ 1310 µM)
- MFC [12]: > 1000 µg/mL
- MIC [12]: 125 µg/mL (≈ 327 µM)
- MFC ([13]; ATCC2091, read-out: MFC): > 1000 µg/mL
- MIC [13]: 500 µg/mL (≈ 1310 µM)
- MFC ([14]; ATCC14243, read-out: MFC): > 1000 µg/mL
- MIC [14]: 250 µg/mL (≈ 654 µM)
- MFC ([15]; ATCC10231, read-out: MFC): > 1000 µg/mL
- MIC [15]: 250 µg/mL (≈ 654 µM)
- MIC [16]: > 1000 µg/mL
- antibacterial activity in words (Gram-positive bacteria): no activity
- MIC [17]: > 1000 µg/mL
- MIC [18]: > 1000 µg/mL

SMILES: O=C(N/N=C/c1ccccc1O)c1ccc(I)cc1 [Compound 23, N-[(2-hydroxyphenyl)methylidene]-4-iodobenzohydrazide]
- MBC [1]: > 1000 µg/mL
- MIC [1]: 500 µg/mL (≈ 1370 µM)
- MBC [2]: > 1000 µg/mL
- MIC [2]: 1000 µg/mL (≈ 2730 µM)
- MBC [3]: > 1000 µg/mL
- MIC [3]: 1000 µg/mL (≈ 2730 µM)
- MBC [4]: > 1000 µg/mL
- MIC [4]: 1000 µg/mL (≈ 2730 µM)
- MBC [5]: > 1000 µg/mL
- MIC [5]: 1000 µg/mL (≈ 2730 µM)
- MBC [6]: > 1000 µg/mL
- MIC [6]: 500 µg/mL (≈ 1370 µM)
- MIC [7]: > 1000 µg/mL
- melting point: 195 to 205 °C
- MIC [8]: > 1000 µg/mL
- MIC [9]: > 1000 µg/mL
- MIC [10]: > 1000 µg/mL
- MIC [11]: > 1000 µg/mL
- MFC [12]: > 1000 µg/mL
- MIC [12]: 1000 µg/mL (≈ 2730 µM)
- MIC [13]: > 1000 µg/mL
- MIC [14]: > 1000 µg/mL
- MIC [15]: > 1000 µg/mL
- MIC [16]: > 1000 µg/mL
- MBC (Gram-positive bacteria; range over the reference Gram-positive bacteria, read-out: MBC): > 1000 µg/mL
- MIC (Gram-positive bacteria; range over the reference Gram-positive bacteria, read-out: MIC): 500 to 1000 µg/mL (≈ 1370 to 2730 µM)
- antibacterial activity in words (Gram-positive bacteria): moderate or mild
- MBC [17]: > 1000 µg/mL
- MIC [17]: 500 µg/mL (≈ 1370 µM)
- MIC [18]: > 1000 µg/mL
